Patent US5232923A, “Catechol derivatives and pharmaceutical preparations containing same” (Mitsui Toatsu Chemicals, Incorporated, priority 1988, dated 1993)
Read-outs that look alike come from different tables or passages of the source.

How the values were obtained:
[1] = tested on: production and secretion of NGF in mouse L-M cells; assay: Promoting activity for the production and secretion of NGF in mouse L-M cells (ELISA of medium after 24 h); assay type: cell-based; conditions: for fold induction at 200 µM / fold induction at 400 µM: Mus musculus, 24 h; for fold induction at 200 µM: read-out: NGF Increase Ratio; for NGF Concentration / NGF L-M Cell Concentration: 24 hours; for NGF Concentration: mean of four determinations; for fold induction at 400 µM / NGF L-M Cell Concentration: Table 5, 0.4 mM; for fold induction at 400 µM: read-out: NGF L-M Cell Increase Ratio; for NGF L-M Cell Concentration: control 0.87
Protocol: Promoting activity for the production and secretion of NGF in mouse L-M cells
The medium was cultured for 3 days at a temperature of 37° C. […] The sample of the derivative tested is contained in the medium at a prescribed concentration as illustrated in the Tables. […] Data are expressed as fold increase in NGF content of the medium over that cultivated in the absence of the derivative to be tested. […] Data are presented as the mean of four determinations. The results are illustrated in Tables 1-5.

[2] = tested on: production and secretion of NGF in mouse brain astroglial cells; assay: Promoting activity for the production and secretion of NGF in mouse brain astroglial cells (ELISA of medium after 24 h); assay type: cell-based; conditions: for fold induction at 400 µM / fold induction at 200 µM: Mus musculus, 24 h; for NGF Concentration / NGF Astroglial Cell Concentration: 24 hours; for NGF Astroglial Cell Concentration: control 31.8
Protocol: Promoting activity for the production and secretion of NGF in mouse brain astroglial cells
The experiment was performed by inducing astroglial cells from the mouse forebrain to a culture system according to the procedures of S. Furukawa et al. which is described in Biochem. Biophys. Res. Commun., 136, 57-63 (1986).
Forebrains of 8-days old mice were dissected out and cut into small pieces. The pieces were washed with calcium- and magnesium-free phosphate-bufferedsaline (hereinafter abbreviated as PBS), treated with 0.25% trypsin containing PBS at 37° C. for 30 minutes and triturated with a Pasteur pipet to give a suspension. Cells and cell clumps were recovered by centrifugation at 200 xg for 5 minutes. They were cultured in Dulbecco modified Eagle's medium (a product of Gibco Co. hereinafter abbreviated as DMEM) containing 10% fetal calf serum, 50 μ units/ml of penicillin, and 50 μg/ml of streptomycin, for 10 to 14 days with medium changes every 3 days. After completing confluency, the cells were dissociated by trypsin treatment and recultured in new culture flasks. This procedure was repeated further twice and more. The culture became a uniform cell cluster. The cell cluster for use in this invention can be stained not less than 97% in accordance with the PAP staining method (peroxidase/[…] staining method) using anti-human glial fibrillar acidic protein (GFAP) rabbit antiserum. The cells will hereinafter be referred to as astroglial cells.
Astroglial cells were innoculated in 24-well plates having a well surface area of 2.1 cm^2 (a product of Falcon Co.) at a cell density of about 3×10^4 cells/well and cultured for 3 days in DMEM medium supplemented with 10% of fetal calf serum. After completing confluency about ([…]), the medium was changed to DMEM medium (0.5 ml/well) supplemented with 0.5% of bovine serum albumin (fraction V) and cultured for 3 days. The culture was further continued with medium changes every 3 days. After cells were practically synchronized in the quiscent stage, the medium was changed to 0.5 ml of the same medium and containing a prescribed concentration of test sample as illustrated in the Tables. NGF in the medium after cultivating for 24 hours was determined by the ELISA as mentioned above. Data are expressed as fold increase in NGF content over that in the absence of the test sample. The lower detection limit of the ELISA is 0.25 pg/ml and the NGF content of control medium was normally 1-10 pg/0.5 ml/well. Data are presented as the mean of four determinations. The results are illustrated in Tables 1-5.

[3] = Table 1, L-M cells, sample concentration 0.2 mM, control 0.33
[4] = Table 3, sample concentration 0.4 mM, fold increase over control (1.00), read-out: NGF Increase Ratio
[5] = Table 3, sample concentration 0.4 mM, control 42.3
[6] = Table 1, L-M cells, sample concentration 0.2 mM, fold increase over control (1.00)
[7] = Table 2, L-M cells, sample concentration 0.2 mM, fold increase over control (1.00)
[8] = Table 2, L-M cells, sample concentration 0.2 mM, control 0.34
[9] = Table 4, sample concentration 0.4 mM, fold increase over control, read-out: NGF Increase Ratio
[10] = Table 4, sample concentration 0.4 mM
[11] = L-M cells, fold increase over control (1.00)
[12] = Table 5, 0.4 mM, fold increase over control (1.00), read-out: NGF Astroglial Cell Increase Ratio
[13] = Table 4, sample concentration 0.2 mM, fold increase over control, read-out: NGF Increase Ratio
[14] = Table 4, sample concentration 0.2 mM

| Compound | fold induction at 400 µM [1, 11] | NGF L-M Cell Concentration ([1]; L-M cells) [ng/well] | fold induction at 400 µM [2, 12] | NGF Astroglial Cell Concentration ([2]; Table 5, 0.4 mM) [ng/well] | further results |
| --- | --- | --- | --- | --- | --- |
| Br.CCNCCc1ccc(O)c(O)c1 [Compound 19, N-Ethyl-3,4-dihydroxyphenethylamine hydrobromide] | – | – | – | – | fold induction at 200 µM [1]: 10.6; NGF Concentration [1, 3]: 3.50 ng/well; fold induction at 400 µM [2, 4]: 4.17; NGF Concentration [2, 5]: 176.3 ng/well |
| CCCC(=O)N(C)CCc1ccc(O)c(O)c1 [Compound 12] | – | – | – | – | fold induction at 200 µM [1, 6]: 9.15; NGF Concentration [1, 3]: 3.02 ng/well; fold induction at 400 µM [2, 4]: 4.89; NGF Concentration [2, 5]: 206.7 ng/well |
| CCOC(=O)Cc1ccc(OC(C)=O)c(OC(C)=O)c1 [Compound 51] | – | – | – | – | fold induction at 200 µM [1, 7]: 5.82; NGF Concentration [1, 8]: 1.98 ng/well; fold induction at 400 µM [2, 9]: 4.5; NGF Concentration [2, 10]: 194.6 ng/well |
| O=C(CCc1ccc(O)c(O)c1)NC1CCCCC1 [Compound 93, N-Cyclohexyl-3,4-dihydroxyphenylpropionamide] | 6 | 5.22 | 9.9 | 161.4 | – |
| CCOC(=O)CCCc1ccc(OC(C)=O)c(OC(C)=O)c1 [Compound 55] | – | – | – | – | fold induction at 200 µM [1, 7]: 5.82; NGF Concentration [1, 8]: 1.98 ng/well; fold induction at 400 µM [2, 9]: 4.39; NGF Concentration [2, 10]: 189.7 ng/well |
| CC(=O)NCCCc1ccc(O)c(O)c1 [Compound 7] | – | – | – | – | fold induction at 200 µM [1, 6]: 8.52; NGF Concentration [1, 3]: 2.81 ng/well; fold induction at 400 µM [2, 4]: 4.46; NGF Concentration [2, 5]: 188.5 ng/well |
| CCCCCCCCCCCCNC(=O)CCc1ccc(O)c(O)c1 [Compound 89, N-Lauryl-3,4-dihydroxyphenylpropionamide] | 4.3 | 3.74 | 5 | 81.5 | – |
| CCOC(=O)C1CCCN(C(=O)CCc2ccc(O)c(O)c2)C1 (stereo not drawn) [Compound 104, Ethyl N-[3-(3,4-dihydroxyphenyl)propionyl]nipecotinate] | 5.7 | 4.96 | 7.8 | 248.0 | – |
| CN(Cc1ccccc1)C(=O)CCc1ccc(O)c(O)c1 [Compound 94, N-Methyl N-benzyl-3,4-dihydroxyphenylpropionamide] | 5.1 | 4.44 | 5.2 | 84.8 | – |
| O=C(CCc1ccc(O)c(O)c1)N1CCN(C(c2ccccc2)c2ccccc2)CC1 [Compound 102, N-Diphenylmethyl-N'-[3-(3,4-dihydroxyphenyl)propionyl]piperazine] | 5.1 | 4.44 | 10.1 | 321.2 | – |
| CCCCN(C)C(=O)CCc1ccc(O)c(O)c1 [Compound 90, N-n-Butyl-N-methyl-3,4-dihydroxyphenylpropionamide] | 6.4 | 5.57 | 30 | 489.0 | – |
| CCCCCCNC(=O)CCc1ccc(OC(C)=O)c(OC(C)=O)c1 [Compound 88, N-n-Hexyl-3,4-diacetoxyphenylpropionamide] | 6.2 | 5.39 | 15.8 | 257.5 | – |
| CCCCOC(=O)CCc1ccc(OC(C)=O)c(OC(C)=O)c1 [Compound 49] | – | – | – | – | fold induction at 200 µM [1, 7]: 6.29; NGF Concentration [1, 8]: 2.14 ng/well; fold induction at 400 µM [2, 9]: 5.18; NGF Concentration [2, 10]: 223.7 ng/well |
| CCCCCCCCCCCCCCCCCCNC(=O)CCc1ccc(O)c(O)c1 [Compound 91, N-Stearyl-3,4-dihydroxyphenylpropionamide] | 4.1 | 3.57 | 5.2 | 84.8 | – |
| CCCC(=O)NCCc1ccc(O)c(O)c1 [Compound 3] | – | – | – | – | fold induction at 200 µM [1, 6]: 9.64; NGF Concentration [1, 3]: 3.18 ng/well; fold induction at 200 µM ([2]; Table 3, sample concentration 0.2 mM, fold increase over control (1.00), read-out: NGF Increase Ratio): 3.66; NGF Concentration ([2]; Table 3, sample concentration 0.2 mM, control 42.3): 155.0 ng/well |
| O=C(CCc1ccc(O)c(O)c1)N1CCOCC1 [Compound 99, N-[3-(3,4-Dihydroxyphenyl)propionyl]morpholine] | 4.8 | 4.18 | 5.2 | 165.4 | – |
| CCOC(=O)CCc1ccc(OC(C)=O)c(OC(C)=O)c1 [Compound 47, Ethyl 3,4-diacetoxyphenylpropionate] | – | – | – | – | fold induction at 200 µM [1, 7]: 6.29; NGF Concentration [1, 8]: 2.14 ng/well; fold induction at 400 µM [2, 9]: 5.11; NGF Concentration [2, 10]: 220.8 ng/well |
| CCOC(=O)Cc1ccc(O)c(O)c1 [Compound 39] | – | – | – | – | fold induction at 200 µM [1, 7]: 5.24; NGF Concentration [1, 8]: 1.78 ng/well; fold induction at 200 µM [2, 13]: 4.86; NGF Concentration [2, 14]: 210.1 ng/well |
| CCCCCCN(CCCCCC)C(=O)CCc1ccc(O)c(O)c1 [Compound 92, N,N-Di-n-hexyl-3,4-dihydroxyphenylpropionamide] | 5 | 4.35 | 8.8 | 143.4 | – |
| CCNC(=O)CCCc1ccc(O)c(O)c1 [Compound 69] | – | – | – | – | fold induction at 200 µM [1, 7]: 5.53; NGF Concentration [1, 8]: 1.88 ng/well; fold induction at 200 µM [2, 13]: 4.49; NGF Concentration [2, 14]: 194.1 ng/well |
| CCCCCNC(=O)CCc1ccc(O)c(O)c1 [Compound 86, N-n-Pentyl-3,4-dihydroxyphenylpropionamide] | 6.5 | 5.66 | 30.3 | 493.9 | – |
| O=C(CCc1ccc(O)c(O)c1)Nc1ccccc1 [Compound 95, N-Phenyl-3,4-dihydroxyphenylpropionamide] | 5.9 | 5.13 | 11.2 | 182.6 | – |
| CCCCNC(=O)CCc1ccc(OC(C)=O)c(OC(C)=O)c1 [Compound 85, N-n-Butyl-3,4-diacetoxyphenylpropionamide] | 6.8 | 5.92 | 33.6 | 547.7 | – |
| CCCCOC(=O)CCc1ccc(O)c(O)c1 [Compound 37] | – | – | – | – | fold induction at 200 µM [1, 7]: 5.44; NGF Concentration [1, 8]: 1.85 ng/well; fold induction at 200 µM [2, 13]: 4.83; NGF Concentration [2, 14]: 208.5 ng/well |
